Data: PubChem BioAssay (NCI)
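Growth conditions: 96-well plates. Treatment: test compound, 48 hours, 5 concentrations. Analysis: linear interpolation between bracketing concentrations; unreached endpoints set to highest concentration. Abbreviation: GI50, concentration required for 50% inhibition of growth. Definition used: TGI = concentration required for complete inhibition of growth.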

Columns and labels:
Assay in all cases: growth of human tumour cells (NCI), 48 h
UACC-62 melanoma = test system: UACC-62 melanoma
HCC-2998 colon = test system: HCC-2998 colon
HOP-92 NSCLC = test system: HOP-92 NSCLC
SK-MEL-2 melanoma = test system: SK-MEL-2 melanoma
HL-60(TB) leukemia = test system: HL-60(TB) leukemia
NCI-H460 lung = test system: NCI-H460 lung
A498 renal = test system: A498 renal
RPMI-8226 leukemia = test system: RPMI-8226 leukemia
HS 578T breast = test system: HS 578T breast
PC-3 prostate = test system: PC-3 prostate

## CCOCc1cc(=O)c2c(OC)cc3c(c2o1)CCC(C)(C)O3
UACC-62 melanoma
  TGI: > 100 µM
HCC-2998 colon
  TGI: > 100 µM
HOP-92 NSCLC
  TGI: > 100 µM
SK-MEL-2 melanoma
  TGI: > 100 µM
HL-60(TB) leukemia
  TGI: > 100 µM
NCI-H460 lung
  TGI: > 100 µM

## Cn1cnc([N+](=O)[O-])c1Sc1nccc(=O)[nH]1
UACC-62 melanoma
  TGI: > 100 µM
HCC-2998 colon
  TGI: > 100 µM
A498 renal
  TGI: > 100 µM
HOP-92 NSCLC
  TGI: > 100 µM
SK-MEL-2 melanoma
  TGI: > 100 µM
NCI-H460 lung
  TGI: > 100 µM
RPMI-8226 leukemia
  TGI: > 100 µM

## COc1ccc2c(c1OC(C)=O)C1=CC(=O)CCC13CCNC3C2 (configuration not stated)
HS 578T breast
  TGI: > 100 µM
UACC-62 melanoma
  TGI: > 100 µM
HCC-2998 colon
  TGI: > 100 µM
PC-3 prostate
  TGI: > 100 µM
HOP-92 NSCLC
  TGI: > 100 µM
SK-MEL-2 melanoma
  TGI: > 100 µM
HL-60(TB) leukemia
  TGI: > 100 µM
NCI-H460 lung
  TGI: > 100 µM
RPMI-8226 leukemia
  TGI: > 100 µM

## Cc1ccccc1C1CC(c2ccccc2)=NO1 (configuration not stated)
UACC-62 melanoma
  TGI: > 100 µM
HCC-2998 colon
  TGI: > 100 µM
A498 renal
  TGI: > 100 µM
HOP-92 NSCLC
  TGI: > 100 µM
SK-MEL-2 melanoma
  TGI: > 100 µM
HL-60(TB) leukemia
  TGI: > 100 µM
NCI-H460 lung
  TGI: > 100 µM
RPMI-8226 leukemia
  TGI: > 100 µM

## CCOP1(=O)C=C(C)C(=C(Cl)Cl)C(C)=C1 (configuration not stated)
UACC-62 melanoma
  GI50: 9.31 µM
  TGI: 23.6 µM
HCC-2998 colon
  TGI: 31.4 µM
A498 renal
  TGI: 76.3 µM
SK-MEL-2 melanoma
  TGI: 56.2 µM
HL-60(TB) leukemia
  TGI: 10.9 µM
NCI-H460 lung
  TGI: > 100 µM
RPMI-8226 leukemia
  TGI: 28.4 µM

## COCCn1cc(-c2csc(-c3c[nH]c4ccc(Br)cc34)n2)c2cccnc21
HS 578T breast
  GI50: 4.44 µM
  TGI: 43 µM
UACC-62 melanoma
  GI50: 4.2 µM
  TGI: > 100 µM
HCC-2998 colon
  GI50: 3.8 µM
  TGI: > 100 µM
PC-3 prostate
  GI50: 3.68 µM
  TGI: > 100 µM
A498 renal
  GI50: 3.02 µM
  TGI: 15.9 µM
HOP-92 NSCLC
  GI50: 4.39 µM
  TGI: 30.7 µM
SK-MEL-2 melanoma
  GI50: 6.82 µM
  TGI: 67.6 µM
NCI-H460 lung
  GI50: 3.07 µM
  TGI: > 100 µM
RPMI-8226 leukemia
  GI50: 5.14 µM
  TGI: > 100 µM

## CC(C)C1N2CCCCC2[C@@H]2c3[nH]c4ccccc4c3CCN12 (some centres not stated)
UACC-62 melanoma
  TGI: > 100 µM
HCC-2998 colon
  TGI: > 100 µM
A498 renal
  TGI: > 100 µM
HOP-92 NSCLC
  TGI: > 100 µM
SK-MEL-2 melanoma
  TGI: > 100 µM
HL-60(TB) leukemia
  TGI: > 100 µM
NCI-H460 lung
  TGI: > 100 µM
RPMI-8226 leukemia
  TGI: > 100 µM

## COC(=O)/C(=N\NC(N)=O)C(C(=O)C=C(C)C)C(=O)C(=O)Nc1ccc(Cl)c(Cl)c1 (configuration not stated)
UACC-62 melanoma
  TGI: > 100 µM
HCC-2998 colon
  TGI: > 100 µM
A498 renal
  TGI: > 100 µM
SK-MEL-2 melanoma
  TGI: > 100 µM
HL-60(TB) leukemia
  TGI: > 100 µM
NCI-H460 lung
  TGI: > 100 µM

## O=C(O)CCC(C(=O)O)N1C(=O)C2C3CCC(C3)C2C1=O (configuration not stated)
HS 578T breast
  TGI: > 100 µM
UACC-62 melanoma
  TGI: > 100 µM
PC-3 prostate
  TGI: > 100 µM
A498 renal
  TGI: > 100 µM
HOP-92 NSCLC
  TGI: > 100 µM
SK-MEL-2 melanoma
  TGI: > 100 µM
NCI-H460 lung
  TGI: > 100 µM
RPMI-8226 leukemia
  TGI: > 100 µM

## CC1CC[P+](c2ccccc2)(c2ccccc2)CC1
UACC-62 melanoma
  TGI: > 100 µM
HCC-2998 colon
  TGI: > 100 µM
A498 renal
  TGI: > 100 µM
SK-MEL-2 melanoma
  TGI: > 100 µM
HL-60(TB) leukemia
  TGI: > 100 µM
NCI-H460 lung
  TGI: > 100 µM
RPMI-8226 leukemia
  TGI: > 100 µM

## CCCCN(CCCC)CCCn1cnc2ncccc2c1=O
UACC-62 melanoma
  TGI: > 100 µM
HCC-2998 colon
  TGI: > 100 µM
HOP-92 NSCLC
  TGI: > 100 µM
SK-MEL-2 melanoma
  TGI: > 100 µM
NCI-H460 lung
  TGI: > 100 µM

## C/C(=N\NC(=O)CC(=O)N(C(=O)c1ccc(Cl)cc1)c1ccc(C)cc1)c1ccccc1O
UACC-62 melanoma
  TGI: > 100 µM
A498 renal
  TGI: > 100 µM
SK-MEL-2 melanoma
  TGI: > 100 µM
NCI-H460 lung
  TGI: > 100 µM
RPMI-8226 leukemia
  TGI: > 100 µM

## C1C[OH+]CC[OH+]CCNCC[OH+]CC[OH+]CCN1.Cl.[Cl-].[Pt+4]
UACC-62 melanoma
  GI50: > 100 µM
  TGI: > 100 µM
A498 renal
  GI50: > 100 µM
  TGI: > 100 µM
HOP-92 NSCLC
  GI50: > 100 µM
  TGI: > 100 µM
HL-60(TB) leukemia
  GI50: > 100 µM
  TGI: > 100 µM
NCI-H460 lung
  GI50: > 100 µM
  TGI: > 100 µM
RPMI-8226 leukemia
  GI50: > 100 µM
  TGI: > 100 µM
